Measured values from patent US9365576B2, “Pyrrolopyrrolidinone compounds” (Novartis AG, priority 2012, dated 2016).

molecular target: human MDM2 protein (amino acids 2-188) (Homo sapiens (Human), UniProt Q00987); assay: TR-FRET assay, p53-MDM2 Assay 2 (modified); assay type: binding; settings: TR-FRET; 0.1 nM MDM2, 0.1 nM Europium labeled streptavidin, Tecan genios Pro reader; read-out: IC50 p53-MDM2 Assay 2
Procedure: The inhibition of p53-MDM2 and p53-MDM4 interactions is measured by time resolved fluorescence energy transfer (TR-FRET). Fluorescence energy transfer (or Foerster resonance energy transfer) describes an energy transfer between donor and acceptor fluorescent molecules. For this assay, human MDM2 protein (amino acids 2-188) and human MDM4 protein (amino acids 2-185), tagged with a C-terminal biotin moiety, are used in combination with a Europium labeled streptavidin (Perkin Elmer, Inc., Waltham, Mass., USA) serving as the donor fluorophore. The p53 derived, Cy5 labeled peptide Cy5-[…] (p53 aa18-26) is the energy acceptor. Upon excitation of the donor molecule at 340 nm, binding interaction between MDM2 or MDM4 and the p53 peptide induces energy transfer and enhanced response at the acceptor emission wavelength at 665 nm. […] The ratiometric FRET assay readout is calculated from the raw data of the two distinct fluorescence signals measured in time resolved mode (fluorescence 665 nm/fluorescence 620 nm×1000).
After addition of 1.25 nM MDM2-biotinylated or 2.5 nM MDM4-biotinylated (internal preparations), and 0.625 nM Europium labeled streptavidin (Perkin Elmer), the solution is pre-incubated for 15 minutes at room temperature, then 10 nM Cy5-p53 peptide (internal preparation) is added before an incubation at room temperature for 15 minutes prior to reading the plate. For measurement of samples, a Victor II microplate reader (Perkin Elmer) is used with the following settings: Excitation 340 nm, Emission Donor 620 nm and Emission Acceptor 665 nm. IC50 values are calculated by curve fitting using XLfit. If not specified, reagents are purchased from Sigma-Aldrich Chemie GmBH, Buchs, Switzerland.

Chain of human MDM2 protein (amino acids 2-188) (Q00987 2-188): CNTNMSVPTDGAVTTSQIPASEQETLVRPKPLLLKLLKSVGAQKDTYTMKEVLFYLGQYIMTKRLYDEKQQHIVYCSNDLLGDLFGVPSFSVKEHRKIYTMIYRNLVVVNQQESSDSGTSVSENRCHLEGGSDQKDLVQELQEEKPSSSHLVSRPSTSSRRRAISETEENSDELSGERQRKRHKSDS

| SMILES | IC50 [nM] |
| --- | --- |
| COc1nc(N(C)C)ncc1-c1cc2c(n1C(C)C)C(c1ccc(Cl)cc1)N(c1ccc(F)c(Cl)c1)C2=O (stereo not drawn) [Example 58, 5-(3-Chloro-4-fluoro-phenyl)-6-(4-chloro-phenyl)-2-(2-dimethylamino-4-methoxy-pyrimidin-5-yl)-1-isopropyl-5,6-dihydro-1H-pyrrolo[3,4-b]pyrrol-4-one] | 0.458 |
| COc1ccccc1-c1cc2c(n1C(C)C)C(c1ccc(Cl)cc1)N([C@H]1CC[C@H](O)CC1)C2=O (stereo partly drawn) [Example 63, 6-(4-Chloro-phenyl)-5-(trans-4-hydroxy-cyclohexyl)-1-isopropyl-2-(2-methoxy-phenyl)-5,6-dihydro-1H-pyrrolo[3,4-b]pyrrol-4-one] | 8.13 |
| CNC(=O)c1ccc(OC)c(-c2cc3c(n2C(C)C)C(c2ccc(Cl)cc2)N([C@H]2CC[C@H](O)CC2)C3=O)c1 (stereo partly drawn) [Example 64, 3-[6-(4-Chloro-phenyl)-5-(trans-4-hydroxy-cyclohexyl)-1-isopropyl-4-oxo-1,4,5,6-tetrahydro-pyrrolo[3,4-b]pyrrol-2-yl]-4-methoxy-N-methyl-benzamide] | 1 |
| COc1ncc(-c2cc3c(n2C(C)C)C(c2ccc(Cl)cc2)N([C@H]2CC[C@H](O)CC2)C3=O)c(OC)n1 (stereo partly drawn) [Example 66, 6-(4-Chloro-phenyl)-2-(2,4-dimethoxy-pyrimidin-5-yl)-5-(trans-4-hydroxy-cyclohexyl)-1-isopropyl-5,6-dihydro-1H-pyrrolo[3,4-b]pyrrol-4-one] | 1.39 |
| COc1ccc(C#N)cc1-c1cc2c(n1C(C)C)C(c1ccc(Cl)cc1)N([C@H]1CC[C@H](O)CC1)C2=O (stereo partly drawn) [Example 67, 3-[6-(4-Chloro-phenyl)-5-(trans-4-hydroxy-cyclohexyl)-1-isopropyl-4-oxo-1,4,5,6-tetrahydro-pyrrolo[3,4-b]pyrrol-2-yl]-4-methoxy-benzonitrile] | 2.49 |
| COc1nc(N(C)C)ncc1-c1cc2c(n1C(C)C)C(c1ccc(Cl)cc1)N([C@H]1CC[C@H](O)CC1)C2=O (stereo partly drawn) [Example 69, 6-(4-Chloro-phenyl)-2-(2-dimethylamino-4-methoxy-pyrimidin-5-yl)-5-(trans-4-hydroxy-cyclohexyl)-1-isopropyl-5,6-dihydro-1H-pyrrolo[3,4-b]pyrrol-4-one] | 0.777 |
| COc1nc(N)ncc1-c1cc2c(n1C(C)C)C(c1ccc(Cl)cc1)N(c1cc(Cl)cn(C)c1=O)C2=O (stereo not drawn) [Example 71, 2-(2-Amino-4-methoxy-pyrimidin-5-yl)-5-(5-chloro-1-methyl-2-oxo-1,2-dihydro-pyridin-3-yl)-6-(4-chloro-phenyl)-1-isopropyl-5,6-dihydro-1H-pyrrolo[3,4-b]pyrrol-4-one] | 0.635 |
| COc1ccccc1-c1cc2c(n1C(C)C)C(c1ccc(Cl)cc1)N(C1CCOCC1)C2=O (stereo not drawn) [Example 74, 6-(4-Chloro-phenyl)-1-isopropyl-2-(2-methoxy-phenyl)-5-(tetrahydro-pyran-4-yl)-5,6-dihydro-1H-pyrrolo[3,4-b]pyrrol-4-one] | 2.57 |
| CNC(=O)c1ccc(OC)c(-c2cc3c(n2C(C)C)C(c2ccc(Cl)cc2)N(C2CCOCC2)C3=O)c1 (stereo not drawn) [Example 75, 3-[6-(4-Chloro-phenyl)-1-isopropyl-4-oxo-5-(tetrahydro-pyran-4-yl)-1,4,5,6-tetrahydro-pyrrolo[3,4-b]pyrrol-2-yl]-4-methoxy-N-methyl-benzamide] | 1.09 |
| COc1ncc(-c2cc3c(n2C(C)C)C(c2ccc(Cl)cc2)N(C2CCOCC2)C3=O)c(OC)n1 (stereo not drawn) [Example 76, 6-(4-Chloro-phenyl)-2-(2,4-dimethoxy-pyrimidin-5-yl)-1-isopropyl-5-(tetrahydro-pyran-4-yl)-5,6-dihydro-1H-pyrrolo[3,4-b]pyrrol-4-one] | 1.64 |
| COc1ccc(C#N)cc1-c1cc2c(n1C(C)C)C(c1ccc(Cl)cc1)N(C1CCOCC1)C2=O (stereo not drawn) [Example 77, 3-[6-(4-Chloro-phenyl)-1-isopropyl-4-oxo-5-(tetrahydro-pyran-4-yl)-1,4,5,6-tetrahydro-pyrrolo[3,4-b]pyrrol-2-yl]-4-methoxy-benzonitrile] | 1.51 |

Molecules with a lower IC50, results first:

| IC50 [nM] | SMILES |
| --- | --- |
| 0.423 | COc1nc(N(C)C)ncc1-c1cc2c(n1C(C)C)C(c1ccc(Cl)cc1)N(C1CCOCC1)C2=O (stereo not drawn) [Example 79, 6-(4-Chloro-phenyl)-2-(2-dimethylamino-4-methoxy-pyrimidin-5-yl)-1-isopropyl-5-(tetrahydro-pyran-4-yl)-5,6-dihydro-1H-pyrrolo[3,4-b]pyrrol-4-one] |
| 0.351 | COc1ccc(C(=O)O)cc1-c1cc2c(n1C(C)C)C(c1ccc(Cl)cc1)N(c1ccc(F)c(Cl)c1)C2=O (stereo not drawn) [Example 56, 3-[5-(3-Chloro-4-fluoro-phenyl)-6-(4-chloro-phenyl)-1-isopropyl-4-oxo-1,4,5,6-tetrahydro-pyrrolo[3,4-b]pyrrol-2-yl]-4-methoxy-benzoic acid] |
| 0.323 | CNC(=O)c1ccc(OC)c(-c2cc3c(n2C(C)C)C(c2ccc(Cl)cc2)N(c2ccc(F)c(Cl)c2)C3=O)c1 (stereo not drawn) [Example 53, 3-[5-(3-Chloro-4-fluoro-phenyl)-6-(4-chloro-phenyl)-1-isopropyl-4-oxo-1,4,5,6-tetrahydro-pyrrolo[3,4-b]pyrrol-2-yl]-4-methoxy-N-methyl-benzamide] |
| 0.295 | CNc1ncc(-c2cc3c(n2C(C)C)C(c2ccc(Cl)cc2)N(c2cc(Cl)cn(C)c2=O)C3=O)c(OC)n1 (stereo not drawn) [Example 72, 5-(5-Chloro-1-methyl-2-oxo-1,2-dihydro-pyridin-3-yl)-6-(4-chloro-phenyl)-1-isopropyl-2-(4-methoxy-2-methylamino-pyrimidin-5-yl)-5,6-dihydro-1H-pyrrolo[3,4-b]pyrrol-4-one] |
| 0.287 | COc1ccc(C(=O)N2CCOCC2)cc1-c1cc2c(n1C(C)C)C(c1ccc(Cl)cc1)N(c1ccc(F)c(Cl)c1)C2=O (stereo not drawn) [Example 55, 5-(3-Chloro-4-fluoro-phenyl)-6-(4-chloro-phenyl)-1-isopropyl-2-[2-methoxy-5-(morpholine-4-carbonyl)-phenyl]-5,6-dihydro-1H-pyrrolo[3,4-b]pyrrol-4-one] |
| 0.267 | COc1ncc(-c2cc3c(n2C(C)C)C(c2ccc(Cl)cc2)N(c2ccc(F)c(Cl)c2)C3=O)c(OC)n1 (stereo not drawn) [Example 54, 5-(3-Chloro-4-fluoro-phenyl)-6-(4-chloro-phenyl)-2-(2,4-dimethoxy-pyrimidin-5-yl)-1-isopropyl-5,6-dihydro-1H-pyrrolo[3,4-b]pyrrol-4-one] |
| 0.235 | COc1ncc(-c2cc3c(n2C(C)C)C(c2ccc(Cl)cc2)N(c2cc(Cl)cn(C)c2=O)C3=O)c(OC)n1 (stereo not drawn) [Example 70, 5-(5-Chloro-1-methyl-2-oxo-1,2-dihydro-pyridin-3-yl)-6-(4-chloro-phenyl)-2-(2,4-dimethoxy-pyrimidin-5-yl)-1-isopropyl-5,6-dihydro-1H-pyrrolo[3,4-b]pyrrol-4-one] |
| 0.169 | CNS(=O)(=O)c1ccc(OC)c(-c2cc3c(n2C(C)C)C(c2ccc(Cl)cc2)N(c2cc(Cl)ccc2C)C3=O)c1 (stereo not drawn) [Example 62, 3-[5-(5-Chloro-2-methyl-phenyl)-6-(4-chloro-phenyl)-1-isopropyl-4-oxo-1,4,5,6-tetrahydro-pyrrolo[3,4-b]pyrrol-2-yl]-4-methoxy-N-methyl-benzenesulfonamide] |
| 0.163 | COc1ccccc1-c1c(C#N)c2c(n1C(C)C)C(c1ccc(Cl)cc1)N(c1cc(Cl)ccc1C)C2=O (stereo not drawn) [Example 59, 5-(5-Chloro-2-methyl-phenyl)-6-(4-chloro-phenyl)-1-isopropyl-2-(2-methoxy-phenyl)-4-oxo-1,4,5,6-tetrahydro-pyrrolo[3,4-b]pyrrole-3-carbonitrile] |
| 0.161 | COc1nc(N(C)C)ncc1-c1cc2c(n1C(C)C)C(c1ccc(Cl)cc1)N(c1cc(Cl)cn(C)c1=O)C2=O (stereo not drawn) [Example 73, 5-(5-Chloro-1-methyl-2-oxo-1,2-dihydro-pyridin-3-yl)-6-(4-chloro-phenyl)-2-(2-dimethylamino-4-methoxy-pyrimidin-5-yl)-1-isopropyl-5,6-dihydro-1H-pyrrolo[3,4-b]pyrrol-4-one] |
| 0.155 | COc1ccc(CC(=O)O)cc1-c1cc2c(n1C(C)C)C(c1ccc(Cl)cc1)N(c1cc(Cl)ccc1C)C2=O (stereo not drawn) [Example 60, {3-[5-(5-Chloro-2-methyl-phenyl)-6-(4-chloro-phenyl)-1-isopropyl-4-oxo-1,4,5,6-tetrahydro-pyrrolo[3,4-b]pyrrol-2-yl]-4-methoxy-phenyl}-acetic acid] |
| 0.115 | COc1ccc(CC(N)=O)cc1-c1cc2c(n1C(C)C)C(c1ccc(Cl)cc1)N(c1cc(Cl)ccc1C)C2=O (stereo not drawn) [Example 80, 2-{3-[5-(5-Chloro-2-methyl-phenyl)-6-(4-chloro-phenyl)-1-isopropyl-4-oxo-1,4,5,6-tetrahydro-pyrrolo[3,4-b]pyrrol-2-yl]-4-methoxy-phenyl}-acetamide] |
| 0.104 | COc1ccc(C(N)=O)cc1-c1cc2c(n1C(C)C)C(c1ccc(Cl)cc1)N(c1cc(Cl)ccc1C)C2=O (stereo not drawn) [Example 61, 3-[5-(5-Chloro-2-methyl-phenyl)-6-(4-chloro-phenyl)-1-isopropyl-4-oxo-1,4,5,6-tetrahydro-pyrrolo[3,4-b]pyrrol-2-yl]-4-methoxy-benzamide] |
